Consider one compound from patent US7408039B2, “Kits for treatment of hematologic disorders” (The General Hospital Corporation, priority 1997, dated 2008).

Data set [1] relates to refractory non-Hodgkin's lymphoma. Conditions: five patients; Cy 50 mg/kg daily x4.
From the text: Median patient age was 30 (range 20-45) years. All patients had disease progression during salvage chemotherapy or radiation therapy.
For data set [2] the following is noted: cited from earlier work.

With `O=P1(N(CCCl)CCCl)NCCCO1` (centres unmarked) [cyclophosphamide], in data set [1], the “patients with reversible Cy cardiotoxicity” value was 1 n. In data set [2] (200 mg/kg, expected, following drug administration), the post-chemotherapy hematopoietic recovery result was “approximately 2 weeks”. Also, the “patients developing diffuse maculopapular rash” value in data set [2] (24-72 hours following cyclophosphamide) is listed as 10-20%. Further, the “patients with some hematuria” value in data set [2] (at this dose level (50 mg/kg x 4)) is recorded as “Approximately 50%”. Besides, the “incidence of hemorrhagic cystitis” value in data set [2] (cyclophosphamide 50 mg/kg on days -6 to -3) is 20%. Moreover, in data set [2] (dose of 200 mg/kg), the myeloablation result is reported as “not myeloablative”. The “time for rash to resolve” value in data set [2] (in vivo) was 24 to 48 h. In addition, the “total dose at which fatal cardiac failure due to hemorrhagic necrosis can occur” value in data set [2] (total dose (7.6 grams/m^2)) is reported as no less than 200 mg/kg.
